ChEMBL document CHEMBL1158136, “Ashwagandhanolide, a bioactive dimeric thiowithanolide isolated from the roots of Withania somnifera” (2006)

Tests used:
[1] = target: Prostaglandin G/H synthase 1 (Homo sapiens) (UniProt P23219); assay: Inhibition of COX1 at 100 ug/mL
AGS = assay: Cytotoxicity against human AGS cells by MTT assay; format: functional
MCF7 = assay: Cytotoxicity against human MCF7 cells by MTT assay; format: functional
SF-268 = assay: Cytotoxicity against human SF-268 cells by MTT assay; format: functional
[2] = Cytotoxicity against human HCT 116 cells by MTT assay; format: functional
NCI-H460 = assay: Cytotoxicity against human NCI-H460 cells by MTT assay; format: functional
[3] = target: T1, Prostaglandin G/H synthase 2 (Homo sapiens) (UniProt P35354); assay: Inhibition of COX2 at 100 ug/mL
T1 sequence (whole entry): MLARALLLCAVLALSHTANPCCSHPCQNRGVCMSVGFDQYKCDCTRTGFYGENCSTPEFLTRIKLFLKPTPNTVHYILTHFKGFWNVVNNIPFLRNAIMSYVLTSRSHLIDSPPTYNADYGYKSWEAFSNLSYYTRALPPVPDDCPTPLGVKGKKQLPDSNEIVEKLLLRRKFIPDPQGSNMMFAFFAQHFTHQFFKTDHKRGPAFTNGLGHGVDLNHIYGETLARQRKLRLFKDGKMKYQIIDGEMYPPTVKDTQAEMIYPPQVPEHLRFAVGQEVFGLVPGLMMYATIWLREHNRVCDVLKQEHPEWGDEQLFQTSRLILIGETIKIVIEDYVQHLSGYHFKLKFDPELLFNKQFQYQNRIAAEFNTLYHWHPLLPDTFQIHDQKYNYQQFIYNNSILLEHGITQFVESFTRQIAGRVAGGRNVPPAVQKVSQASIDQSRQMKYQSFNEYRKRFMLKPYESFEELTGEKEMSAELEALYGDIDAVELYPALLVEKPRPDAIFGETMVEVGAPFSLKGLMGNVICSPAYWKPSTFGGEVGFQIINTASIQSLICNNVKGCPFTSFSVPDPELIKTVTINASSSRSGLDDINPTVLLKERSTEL

Sequence of Prostaglandin G/H synthase 1 (Homo sapiens) (P23219 whole entry): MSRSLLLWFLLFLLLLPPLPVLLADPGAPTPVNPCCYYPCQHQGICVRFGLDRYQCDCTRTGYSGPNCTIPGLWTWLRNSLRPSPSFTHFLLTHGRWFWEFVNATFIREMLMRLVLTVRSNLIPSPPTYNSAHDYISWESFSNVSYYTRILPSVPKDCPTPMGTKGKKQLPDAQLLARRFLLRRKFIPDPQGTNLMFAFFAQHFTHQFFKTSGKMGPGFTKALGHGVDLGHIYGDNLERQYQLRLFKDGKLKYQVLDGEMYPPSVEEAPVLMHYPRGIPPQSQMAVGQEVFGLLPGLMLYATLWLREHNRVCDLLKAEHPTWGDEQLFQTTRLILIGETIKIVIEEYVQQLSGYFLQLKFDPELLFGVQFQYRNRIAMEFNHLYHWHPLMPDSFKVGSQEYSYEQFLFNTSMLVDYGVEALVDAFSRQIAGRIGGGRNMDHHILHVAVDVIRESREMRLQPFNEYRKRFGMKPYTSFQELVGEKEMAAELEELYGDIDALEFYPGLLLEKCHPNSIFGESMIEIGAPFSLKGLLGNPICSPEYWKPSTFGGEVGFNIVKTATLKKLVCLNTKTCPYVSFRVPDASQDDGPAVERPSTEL

inhibition [1]: 65%
inhibition [3]: 60%
Structure (SMILES): CC1=C(CO)C(=O)O[C@@H]([C@@H](C)[C@H]2CC[C@H]3[C@@H]4C[C@H](S[C@H]5C[C@H]6[C@@H]7CC[C@H]([C@H](C)[C@H]8CC(C)=C(CO)C(=O)O8)[C@@]7(C)CC[C@@H]6[C@@]6(C)C(=O)C=C[C@H](O)[C@@]56O)[C@]5(O)[C@@H](O)C=CC(=O)[C@]5(C)[C@H]4CC[C@]23C)C1 [ASHWAGANDHANOLIDE]
IG50 (AGS): 0.43 µg/mL
IG50 (MCF7): 1.45 µg/mL
IG50 (SF-268): 0.84 µg/mL
IG50 [2]: 1.25 µg/mL
IG50 (NCI-H460): 1.48 µg/mL
